This test concerns ESC-induced Oct4-GFP re-activation in NSCs. Nature of the test: CLEAR analysis of ESC fusion-induced reprogramming (PEG-induced fusion of Z-Red ESCs and CIPOE NSCs, flow cytometry). The text has this:
CLEAR strategy uses engineered ESCs and NSCs for monitoring fusion-induced DsRed expression and reprogramming-induced GFP expression (FIG. 1A). Z-Red ESCs were derived from a clonal ESC line containing one copy of a transgene (CAG-loxP-LacZ::neomycin-polyA-loxP-DsRed.T3) as a Cre recombination excision reporter.
Adult NSCs were isolated from Oct4-GFP (GOF 18-A PE-EGFP) transgenic mice and transduced by retroviruses to stably co-express Cre and the puromycin resistance gene through a bicistronic cassette (termed CIPOE NSCs hereafter). Somatic cells with Oct4-GFP transgene integration have been used previously to investigate reprogramming, in which the regulatory elements of Oct4 direct reliable GFP reactivation from somatic genomes in reprogrammed ESC-like hybrid cells (also see FIG. 3). Multiple CIPOE NSC lines from Oct4-GFP transgenic mice were established, characterized and used for subsequent cell fusion experiments.
To quantitatively analyze the reprogramming-induced Oct4-GFP re-activation, dual-color flow cytometry was used to display and measure the cell population that underwent PEG-induced cell fusion. Viable cells were identified by their typical FSC (Forward Scatter) and SSC (Side Scatter) properties. To ensure appropriate gating for […] and DsRed+ events and to compensate the spectrum crossover of GFP and DsRed signals, the system was first calibrated using multiple control cells, including Z-Red ESCs, CIPOE NSCs, mixed Z-Red ESCs and CIPOE NSCs without PEG. Z-Red ESCs transfected with a constitutive Cre expression plasmid, and CIPOE NSCs transfected with a Cre excision reporter plasmid (FIG. 4A).
ESC fusion-induced Oct4 re-activation from NSCs was quantitatively measured using two different approaches. In the first approach, the reprogramming frequency (Rf) is determined by the ratio of GFP DsRed+ cells to total DsRed+ cells. […] In the second approach, the reprogramming efficacy is determined by the distribution of GFP fluorescence intensities of individual cells from the DsRed+ population (FIG. 4C). This analysis provides a measurement of the efficiency of Oct4-GFP re-activation in NSCs after successful fusion.
The protocol was optimized for PEG-induced cell fusion between ESCs and NSCs to achieve maximum efficiency and minimal toxicity. Equal numbers of ESCs and NSCs were mixed thoroughly and spun down in PBS. The pellet was loosened by gentle tapping and 50% PEG (500 μl for 1×10^7 cells) was added to the cells continuously over one minute while swirling the mixture in 37° C. water bath Next, 2 ml of ESC medium was layered on top of PEG-cell mixture and one-minute incubation in 37° C., followed by low-speed centrifugation at 1,800 rpm for 5 minutes. After removing the supernatant, the pellet was incubated with ESC medium for one minute, washed, resuspended and plated onto gelatin-coated dishes and grown in Dubelcco's Modified Eagle's Medium, 15% fetal bovine serum supplemented with mouse leukemia inhibitory factor (ESGRO), 0.1 mM nonessential amino acids, 0.1 mM β-mercaptoethanol, and 50 U/ml penicillin/50 μg/ml streptomycin (ESC medium). […] The following pharmacological inhibitors were applied in ESC-fusion experiments only during the first 48 hours after fusion. DMOG (5-10 μM; BioMol), Anacardic acid (5-10 μM; Calbiochem), Trichostatin A (TSA, 100 nM-1 μM; Sigma) and azidothymidine (AZT, 1-5 μM; Sigma).
(In general: Flow cytometry measures light scatter and fluorescence of single cells or particles in a stream.)

Setting [1] is: 10 μM, 48-hour treatment, analyzed at day 4, vs DMSO.

Entries after “also recorded” stand apart in the source; their conditions may differ.

As to `COC(=O)CNC(=O)C(=O)OC` [DMOG, dimethyloxalylglycine], the “Effects (on reprogramming)” value (5 μM, applied only during the first 48 hours after fusion) is reported as “strong reprogramming deficit”. For the same compound, under setting [1], the reprogramming efficacy result is reported as “significant decreases” and the reprogramming frequency entry is given as “significant decreases”. For the same compound, the “ESC-induced Oct4 re-activation in NSCs” value (inhibitor treatment after fusion) is on record as “considerably reduced; also recorded: attenuates”.

For the origin of these results see patent publication US20110136145A1, “METHODS FOR PROMOTING FUSION AND REPROGRAMMING OF SOMATIC CELLS” (THE JOHNS HOPKINS UNIVERSITY, priority 2008, published 2011).
